The record followed here is US12331051B2 (priority 2021, dated 2025).

Molecules are shown by their SMILES. “Also recorded” adds a separate entry of the source. Where two headings read alike, the source gives them in different places.

Holding throughout (format): cell-based
The target in one assay is T1, 5-HT2B receptor (Homo sapiens, UniProt P41595).
T1 construct: expressed in transfected cells; host or cells: HEK293T; Flp-In 293 T-Rex (calcium flux)
Description: 5-HT2B Gq dissociation, β-arrestin2 recruitment and Gq-mediated calcium flux in HEK293T cells. As to the method: The activity of the “E559 polymorph” at the 5-HT2B receptor was further assessed by 5-HT2B-mediated Gq dissociation (FIG. 14A), 5-HT2B-mediated 0-arrestin2 recruitment (FIG. 14B) and 5-HT2B Gq-mediated calcium flux assessments (FIG. 14C) using bioluminescence resonance energy transfer (BRET) assay in HEK293T cells FIG. 14A to C, 5-HT refers to serotonin). […] In 5-HT2B antagonist assays, the “E559 polymorph” antagonism was measured by its ability to block 5-HT2B receptor activation by 5-HT.
For orientation: Activated receptors often draw arrestin, which recruitment assays turn into a signal.

For the next assay, the target named is D1 dopamine receptor (Homo sapiens, UniProt P21728). Briefly: BRET-based G protein dissociation assay. In general terms: BRET reads energy transfer from a luciferase to a nearby fluorophore.
The target of the next assay is T2, 5-HT5A receptor (Homo sapiens, UniProt P47898).
T2 construct: expressed in transfected cells; host or cells: HEK293T
Description: G protein dissociation assay.

The target in the next assay is T3, D4 dopamine receptor (Homo sapiens, UniProt P21917).
T3 sequence (P21917 1-419): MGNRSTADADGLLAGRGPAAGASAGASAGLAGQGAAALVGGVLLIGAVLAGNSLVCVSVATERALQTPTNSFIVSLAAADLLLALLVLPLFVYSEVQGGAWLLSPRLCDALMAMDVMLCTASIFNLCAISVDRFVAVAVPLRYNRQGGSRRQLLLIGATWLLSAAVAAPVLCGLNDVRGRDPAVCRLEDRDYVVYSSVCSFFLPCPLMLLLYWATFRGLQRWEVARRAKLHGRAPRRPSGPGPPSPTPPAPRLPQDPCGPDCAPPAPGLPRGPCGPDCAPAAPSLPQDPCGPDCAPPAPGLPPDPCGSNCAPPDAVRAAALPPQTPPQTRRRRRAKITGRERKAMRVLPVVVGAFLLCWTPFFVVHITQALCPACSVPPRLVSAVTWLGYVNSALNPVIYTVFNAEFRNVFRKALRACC
Briefly: BRET-based G protein dissociation assay.

Another assay concerns the target D3 dopamine receptor (Homo sapiens, UniProt P35462). Description: BRET-based G protein dissociation assay.
Assay [1] has as its target T4, Serotonin 1B receptor (5-HT1BR) (Homo sapiens, UniProt P28222).
T4 construct: expressed in transfected cells; host or cells: HEK-293
Description: Functional assay in HEK-293 cells (cAMP). As to the method: (§1) Neuro-receptor binding and functional effects of the “E559 polymorph” was examined by analyzing binding affinity [Ki (nM)], functional agonist activity [EC50 (nM)], and functional antagonist activity [IC50 (nM)] against a panel of key receptors in neurophysiological disorders. Binding and functional assays were performed at “E559 polymorph” concentrations of 0.0003, 0.003, 0.01, 0.03, 0.1, 0.3, 1, and 10 μM. In binding assays, cell membrane homogenates, expressing each receptor target, were incubated with the corresponding radio-ligand in absence or presence of several concentration of the “E559 polymorph” compound. The measurement of binding affinity of the “E559 polymorph” is represented in TABLE XIII by Ki (nM) which was calculated as percent inhibition of the binding of a radioactively labeled reference ligand at each receptor. In functional assays the HEK-293 cells expressing each receptor target were suspended in buffer and distribute in microplates and incubated for 30 minutes at room temperature or 37° C. in the presence of buffer alone (basal control), the reference agonist or antagonist, or the “E559 polymorph. Following incubation, the cells were lysed and the appropriate fluorescent probe (Ca2+ flux, cAMP, or IP1) were added for 60 minutes to measure the fluorescence transfer at the appropriate wavelength using a microplate reader. The cellular agonist effect (EC50) was calculated as a percent of control response to a known reference agonist and the cellular antagonist effect (IC50) was calculated as a percent inhibition of control reference agonist response for each receptor.
(§2) The functional agonist activity [EC50 (nM), Emax], and functional antagonist activity [IC50 (nM)] of the 5R:8S stereoisomer of the “E559 polymorph” (5R:8S E558) was compared with the “E559 polymorph” (a 5R:8R stereoisomer) at selected serotonin receptors. The assays were performed as described in Example 6.

The target in assay [2] is ADRb1 (β1 adrenergic receptor) (Homo sapiens, UniProt P08588). Description: BRET-based G protein dissociation assay.
Assay [3] addresses T5, Serotonin 2C receptor (5-HT2CR) (Homo sapiens, UniProt P28335).
T5 construct: expressed in transfected cells; host or cells: HEK-293
T5 sequence (P28335 33-458): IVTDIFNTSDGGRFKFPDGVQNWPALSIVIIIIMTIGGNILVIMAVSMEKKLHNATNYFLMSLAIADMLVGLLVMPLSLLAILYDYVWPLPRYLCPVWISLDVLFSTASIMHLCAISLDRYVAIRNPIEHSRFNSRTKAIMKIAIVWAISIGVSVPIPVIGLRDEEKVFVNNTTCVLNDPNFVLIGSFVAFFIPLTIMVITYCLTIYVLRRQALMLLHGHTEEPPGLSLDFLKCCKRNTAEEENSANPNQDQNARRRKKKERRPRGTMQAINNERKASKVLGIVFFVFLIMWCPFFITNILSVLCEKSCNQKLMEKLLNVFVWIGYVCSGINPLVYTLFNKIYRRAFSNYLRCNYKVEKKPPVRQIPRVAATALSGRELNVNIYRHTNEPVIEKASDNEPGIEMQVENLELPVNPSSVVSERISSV
Description: Functional assay in HEK-293 cells (IP1). The procedure: Neuro-receptor binding and functional effects of the “E559 polymorph” was examined by analyzing binding affinity [Ki (nM)], functional agonist activity [EC50 (nM)], and functional antagonist activity [IC50 (nM)] against a panel of key receptors in neurophysiological disorders. Binding and functional assays were performed at “E559 polymorph” concentrations of 0.0003, 0.003, 0.01, 0.03, 0.1, 0.3, 1, and 10 μM. In binding assays, cell membrane homogenates, expressing each receptor target, were incubated with the corresponding radio-ligand in absence or presence of several concentration of the “E559 polymorph” compound. The measurement of binding affinity of the “E559 polymorph” is represented in TABLE XIII by Ki (nM) which was calculated as percent inhibition of the binding of a radioactively labeled reference ligand at each receptor. […] Following incubation, the cells were lysed and the appropriate fluorescent probe (Ca2+ flux, cAMP, or IP1) were added for 60 minutes to measure the fluorescence transfer at the appropriate wavelength using a microplate reader. The cellular agonist effect (EC50) was calculated as a percent of control response to a known reference agonist and the cellular antagonist effect (IC50) was calculated as a percent inhibition of control reference agonist response for each receptor.

A further assay addresses 5-HT6 (Homo sapiens, UniProt P50406). Description: Functional assay (cAMP). Details: expressed in transfected cells; host or cells: HEK-293. As to the method: as §1, §2
The next assay addresses T6, 5-HT1E (Homo sapiens, UniProt P28566).
T6 construct: expressed in transfected cells; host or cells: HEK-293
Briefly: Functional assay (Arrestin).

For assay [4], the target named is T7, Beta 1 adrenergic receptor (Homo sapiens, UniProt P08588).
T7 construct: expressed in transfected cells; host or cells: HEK-293
Briefly: Functional assay in HEK-293 cells (cAMP). The procedure:
as §1

Assay [5] has as its target T8, Beta 2 adrenergic receptor (Homo sapiens, UniProt P07550).
T8 construct: expressed in transfected cells; host or cells: HEK-293
Description: Functional assay in HEK-293 cells (cAMP). The procedure: as §1

Setting [6] is: percentage of the reference ligand-induced maximal response, read-out: Emax.

Chain of D1 dopamine receptor (P21728 whole entry): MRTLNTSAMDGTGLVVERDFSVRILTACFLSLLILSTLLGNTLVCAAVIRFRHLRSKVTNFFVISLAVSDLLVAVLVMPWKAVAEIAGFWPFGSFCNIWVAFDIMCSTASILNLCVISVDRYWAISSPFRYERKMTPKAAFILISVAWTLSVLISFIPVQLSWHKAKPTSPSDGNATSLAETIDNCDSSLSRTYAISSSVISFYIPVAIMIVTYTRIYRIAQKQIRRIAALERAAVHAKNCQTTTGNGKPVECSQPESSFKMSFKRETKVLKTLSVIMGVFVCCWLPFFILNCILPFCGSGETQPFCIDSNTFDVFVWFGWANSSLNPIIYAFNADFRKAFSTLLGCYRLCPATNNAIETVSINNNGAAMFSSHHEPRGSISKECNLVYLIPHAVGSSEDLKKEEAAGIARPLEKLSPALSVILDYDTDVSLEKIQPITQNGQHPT
T4 sequence (P28222 whole entry): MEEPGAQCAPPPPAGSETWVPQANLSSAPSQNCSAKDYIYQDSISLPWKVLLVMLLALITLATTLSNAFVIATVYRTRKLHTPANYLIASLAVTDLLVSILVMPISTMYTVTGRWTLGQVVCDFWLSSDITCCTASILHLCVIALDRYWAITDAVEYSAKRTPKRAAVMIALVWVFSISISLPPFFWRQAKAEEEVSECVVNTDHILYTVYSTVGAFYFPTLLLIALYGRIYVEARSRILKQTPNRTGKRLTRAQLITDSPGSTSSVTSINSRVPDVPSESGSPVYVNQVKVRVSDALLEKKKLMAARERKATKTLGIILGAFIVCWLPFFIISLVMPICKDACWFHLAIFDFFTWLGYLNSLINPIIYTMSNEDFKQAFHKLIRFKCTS
T1 sequence (P41595 whole entry): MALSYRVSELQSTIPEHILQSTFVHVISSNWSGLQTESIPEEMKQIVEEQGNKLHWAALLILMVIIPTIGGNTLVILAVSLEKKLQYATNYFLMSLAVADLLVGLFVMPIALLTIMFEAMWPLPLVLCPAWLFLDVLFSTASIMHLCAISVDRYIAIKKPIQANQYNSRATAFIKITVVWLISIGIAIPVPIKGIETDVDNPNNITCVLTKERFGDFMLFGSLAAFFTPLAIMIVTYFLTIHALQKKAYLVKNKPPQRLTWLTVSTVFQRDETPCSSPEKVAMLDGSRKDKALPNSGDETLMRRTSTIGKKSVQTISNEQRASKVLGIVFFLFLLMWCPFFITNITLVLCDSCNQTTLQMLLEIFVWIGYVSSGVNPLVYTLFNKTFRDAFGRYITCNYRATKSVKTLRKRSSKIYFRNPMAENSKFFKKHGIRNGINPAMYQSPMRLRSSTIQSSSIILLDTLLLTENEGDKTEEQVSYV
Chain of D3 dopamine receptor (P35462 whole entry): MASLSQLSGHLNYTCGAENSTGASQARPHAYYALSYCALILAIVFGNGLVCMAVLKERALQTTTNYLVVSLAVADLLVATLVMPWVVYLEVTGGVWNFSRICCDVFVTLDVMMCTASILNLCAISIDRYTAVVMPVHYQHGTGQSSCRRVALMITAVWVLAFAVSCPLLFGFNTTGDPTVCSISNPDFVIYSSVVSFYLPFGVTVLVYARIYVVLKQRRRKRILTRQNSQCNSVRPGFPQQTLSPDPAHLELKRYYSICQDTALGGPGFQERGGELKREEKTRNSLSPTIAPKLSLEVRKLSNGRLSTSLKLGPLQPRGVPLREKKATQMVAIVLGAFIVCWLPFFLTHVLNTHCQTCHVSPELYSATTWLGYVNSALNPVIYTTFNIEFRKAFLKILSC
T6 sequence (P28566 whole entry): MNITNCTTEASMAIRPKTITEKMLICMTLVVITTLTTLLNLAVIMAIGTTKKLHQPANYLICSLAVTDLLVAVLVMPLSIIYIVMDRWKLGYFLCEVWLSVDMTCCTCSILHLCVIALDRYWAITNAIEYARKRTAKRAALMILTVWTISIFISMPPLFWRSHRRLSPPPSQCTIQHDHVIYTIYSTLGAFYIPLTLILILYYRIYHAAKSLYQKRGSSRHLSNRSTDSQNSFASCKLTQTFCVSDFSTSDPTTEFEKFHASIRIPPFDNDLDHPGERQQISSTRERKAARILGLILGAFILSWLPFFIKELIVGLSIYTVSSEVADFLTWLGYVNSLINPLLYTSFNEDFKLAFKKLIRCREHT
Chain of ADRb1 (β1 adrenergic receptor) (P08588 whole entry): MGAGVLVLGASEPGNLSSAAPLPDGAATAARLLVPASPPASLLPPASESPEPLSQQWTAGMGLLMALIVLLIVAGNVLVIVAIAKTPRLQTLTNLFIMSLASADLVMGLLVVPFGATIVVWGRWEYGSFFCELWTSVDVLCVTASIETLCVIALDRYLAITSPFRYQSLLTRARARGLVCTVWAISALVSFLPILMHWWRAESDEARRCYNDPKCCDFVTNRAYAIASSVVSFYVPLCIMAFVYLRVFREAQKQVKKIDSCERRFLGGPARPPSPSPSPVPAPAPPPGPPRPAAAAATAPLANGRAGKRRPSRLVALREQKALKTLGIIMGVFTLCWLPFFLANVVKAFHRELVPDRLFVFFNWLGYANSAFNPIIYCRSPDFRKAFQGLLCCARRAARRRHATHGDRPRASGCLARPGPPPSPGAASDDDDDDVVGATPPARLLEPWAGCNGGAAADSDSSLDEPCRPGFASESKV
T7 sequence (P08588 whole entry): as above
T8 sequence (P07550 whole entry): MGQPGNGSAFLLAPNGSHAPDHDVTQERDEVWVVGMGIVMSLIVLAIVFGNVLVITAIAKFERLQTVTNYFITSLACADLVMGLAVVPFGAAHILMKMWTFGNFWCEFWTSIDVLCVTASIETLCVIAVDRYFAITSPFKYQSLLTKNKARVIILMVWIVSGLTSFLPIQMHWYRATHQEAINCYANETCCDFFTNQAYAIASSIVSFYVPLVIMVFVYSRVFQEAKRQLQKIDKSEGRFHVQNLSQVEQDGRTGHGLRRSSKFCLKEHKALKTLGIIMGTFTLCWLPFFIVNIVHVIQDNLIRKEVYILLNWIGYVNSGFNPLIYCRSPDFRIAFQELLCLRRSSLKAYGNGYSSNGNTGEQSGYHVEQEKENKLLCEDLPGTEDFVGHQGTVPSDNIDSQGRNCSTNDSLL
Chain of 5-HT6 (P50406 whole entry): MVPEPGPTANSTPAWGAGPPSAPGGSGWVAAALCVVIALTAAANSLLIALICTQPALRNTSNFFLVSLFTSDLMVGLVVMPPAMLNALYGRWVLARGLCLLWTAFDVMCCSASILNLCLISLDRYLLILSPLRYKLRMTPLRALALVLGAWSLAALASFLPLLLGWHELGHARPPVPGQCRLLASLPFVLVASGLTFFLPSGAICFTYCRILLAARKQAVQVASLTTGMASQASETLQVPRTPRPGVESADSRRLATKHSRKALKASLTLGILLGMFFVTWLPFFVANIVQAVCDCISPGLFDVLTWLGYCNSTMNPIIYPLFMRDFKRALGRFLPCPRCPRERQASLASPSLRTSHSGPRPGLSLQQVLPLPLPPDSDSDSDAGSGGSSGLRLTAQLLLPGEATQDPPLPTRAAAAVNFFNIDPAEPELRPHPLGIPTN
T2 sequence (P47898 whole entry): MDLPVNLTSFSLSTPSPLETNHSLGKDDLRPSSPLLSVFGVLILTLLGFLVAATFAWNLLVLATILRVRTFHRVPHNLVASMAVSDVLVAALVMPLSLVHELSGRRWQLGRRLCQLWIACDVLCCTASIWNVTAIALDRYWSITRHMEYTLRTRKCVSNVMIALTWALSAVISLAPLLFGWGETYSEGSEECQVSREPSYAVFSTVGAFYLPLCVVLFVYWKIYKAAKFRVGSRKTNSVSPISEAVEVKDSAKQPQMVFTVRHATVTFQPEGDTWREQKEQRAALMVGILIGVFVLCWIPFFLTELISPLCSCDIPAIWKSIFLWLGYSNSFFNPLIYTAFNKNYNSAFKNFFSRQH

What is called EC50 is the concentration needed to bring the measured effect to its halfway point. What is called Emax is the maximal effect, on the per cent scale that the assay sets. For `CCN(CC)C(=O)[C@@H]1C=C2c3cccc4[nH]cc(c34)C[C@H]2N(C)C1` [LSD, lysergic acid diethylamide, reference compound], the “agonism at 5-HT2B” value at 5-HT2B receptor is listed as “shows potent agonism of the 5-HT2B receptor; also recorded: an agonist of 5-HT2B”. In addition, the EC50 was 108 nM on D1 dopamine receptor; 4.03 nM on D4 dopamine receptor (agonist mode, read-out: EC50); 7.57 nM at D3 dopamine receptor (agonist mode, read-out: EC50). Moreover, the Emax came to 41.3% at D1 dopamine receptor, 91.9% at D4 dopamine receptor (setting [6]) and 74.5% at D3 dopamine receptor (setting [6]). For the same compound, the “functional activity at 5-HT5A” value on 5-HT5A receptor is reported as “acts as a partial agonist”.

For orientation: IC50 means the midpoint of a concentration-inhibition curve. Take `CCN(CC)C(=O)[C@@H]1C=C2c3cccc4[nH]c(Br)c(c34)C[C@H]2N(C)C1` [E559, (5R, 8R)-2-Bromo-9,10-didehydro-N,N-diethyl-6-methylergoline-8-carboxamide hemi-D-tartrate]: the IC50 in assay [1] was greater than 10000 nM; in assay [3], 1100 nM; in assay [4], 870 nM; in assay [5], 360 nM. Besides, the EC50 in [1] (Functional (Agonist) EC50 (nM), cAMP) is 6.69 nM; in assay [1] (Functional Assay (agonist) EC50 (nM), cAMP, ligand 5-HT), 6.96 nM; in [2], greater than 10000 nM; in assay [3], greater than 10000 nM; on D1 dopamine receptor, 0.12 nM; on 5-HT6 it was 0.5 nM. Moreover, the EC50 is greater than 10000 nM at 5-HT1E; 1.22 nM on D4 dopamine receptor; greater than 10000 nM in assay [4]; greater than 10000 nM in assay [5]; 2.84 nM on D3 dopamine receptor. Also, the Emax in [1] (HEK293, cAMP, ligand 5-HT, read-out: Functional Assay (agonist) Emax) worked out at 100%; at 5-HT6 (cAMP, ligand 5-HT, read-out: Functional Assay (agonist) Emax) it was 80.1%; at 5-HT1E (Arrestin, ligand 5-HT, read-out: Functional Assay (agonist) Emax), 8.7%; at D4 dopamine receptor, 67.3%; at D3 dopamine receptor, 31.8%. Moreover, at 5-HT2B receptor (Gq dissociation, β-arrestin2 recruitment, calcium flux), the “antagonism of 5-HT-mediated activation of 5-HT2B” value is “antagonism was observed in blocking 5-HT-mediated activation of the 5-HT2B receptor in all three assays”. Further, on 5-HT2B receptor (Gq dissociation, β-arrestin2 recruitment, calcium flux, listed as E559 polymorph), the “agonism at 5-HT2B” value is “does not show the agonism seen with LSD; also recorded: inactive as an agonist at the 5-HT2B receptor”. Besides, the Kb came to 95.2 nM in assay [2], 32.9 nM at D1 dopamine receptor and 7.13 nM at D3 dopamine receptor. On 5-HT5A receptor (FIG. 15), the “functional activity at 5-HT5A” value is reported as “antagonizes this receptor subtype”.
